Patent publication US20030157715A1, “Modulation of chromosome function by chromatin remodeling agents” (priority 2000, published 2003)

System: GAF binding site from the Ubx promoter
Experiment: DNase I footprinting on Ubx GAF binding site (GAF31 probe)
Design: species or system Drosophila melanogaster
Conditions: same probe as bw^D repeats
Text: A footprint experiment was therefore carried out with this protein. The DNA probe (GAF31) used for this purpose contains besides the (AAGAG)2 motif (the target of P31) a typical promoter proximal GAF binding site derived from the Ubx gene (Biggin et al., 1988). This Ubx site contains the pentameric consensus sequence GAGAG of GAF (Omichinski et al., 1997). […] Selective Staining of GAGAA Satellite V in Nuclei and Polytene Chromosomes:
Synthetic oligonucleotides […] and […] were hybridized to obtain the W9 probe, oligomerized by ligation and digested with BamHI and BglII to obtain different tandem repeats. The following oligonucleotides were prepared identically: GAF31 is composed of the oligonucleotides […] and […] and, BrownI of oligonucleotides […] and […]. Fragments were purified on low-melt agarose gels and then cloned into a modified pSP64 vector, cut by BamHI and BglII. End-labeling was carried out following digestion with HindIII and a fill-in reaction with Klenow DNA polymerase. The labeled plasmid was cut with PvuII and the target fragments purified from low-melting agarose gels. The 657 bp EcoR1/Hinf1 fragment of the Drosophila histone SAR was cloned into the SmaI site of the modified pSP64 plasmid. This SAR probe was end-labeled following-digestion with EcoR1, then cut with ClaI and the resulting 347 bp fragment purified from low-melting agarose gels. […]

SMILES: CN(C)CCCNC(=O)CCNC(=O)c1nc(NC(=O)CCNC(=O)c2nc(NC(=O)CCNC(=O)c3cc(NC(=O)c4nc(NC(=O)CCNC(=O)c5nccn5C)cn4C)cn3C)cn2C)cn1C [Compound P31, Im-β-Im-Py-β-Im-β-Im-β-Dp]
- ligand concentration up to which no binding is noted at the Ubx GAF site: > 25 nM
